Where a name gives a salt, the structure may show the parent alone.
Key:
[1] = Stability in buffer at pH 7.4 (HPLC); assay type: physicochemical; settings: buffer pH 7.4, 37° C.
Protocol: 0.3 mg of the test compound are solved in 0.1 ml dimethylsulfoxide and 0.4 ml acetonitrile. For complete dissolution the HPLC vial with the sample solution is sonified for about 20 seconds. Then 1.0 ml of the buffer solution is added, and the sample is again treated in the ultrasonic bath.
90 g of sodium chloride, 13.61 g of potassium dihydrogen phosphate and 83.35 g of 1 M sodium hydroxide solution are made up to 1 liter with Millipore water and then diluted 1:10.
10 μl portions of the sample solution are analysed by HPLC to determine the amount of the test compound over a period of 24 hours at 37° C. The peak areas in percentage are used for quantification.
Agilent 1100 with DAD (G1315B), binary pump (G1312A), autosampler (G1329A), column oven (G1316A), thermostat (G1330B); column: Kromasil 100 C18, 250 mm×4 mm, 5 μm; column temperature: 37° C.; eluent A: water+5 ml of perchloric acid/liter, eluent B: acetonitrile.
The ratio of the peak areas (F) at different time points in relation to the peak areas at the starting time are shown in Table 2 for representative examples: […]

[2] = In vitro stability in rat plasma (HPLC detection); assay type: in vitro ADME; settings: 37° C.
Protocol: 1 mg of test compound is dissolved in 1.25 ml dimethylsulfoxide. Then 1.25 ml water are added. 0.5 ml of this sample solution are mixed with 0.5 ml heparinized and 37° C. warm plasma (wistar rat plasma or human plasma). A first sample (10 μl) is immediately taken for HPLC analysis. In the period up to 4 h after the start of incubation further 10 μl aliquots are taken after 30, 60, 90, 120 and 240 minutes and the amount of the test compound is determined.
Agilent 1100 with DAD (G1315A), binary pump (G1312A), autosampler (G1329A), column oven (G1316A), thermostat (G1330B); column: Kromasil 100 C18, 250 mm×4 mm, 5 μm; column temperature: 45° C.; eluent A: water+5 ml of perchloric acid/liter, eluent B: acetonitrile.

Compound | % Test Compound after 24 h [F(t = 24 h) × 100/F(t = 0 h)] [1] [%] | % Test Compound after 4 h [F(t = 24 h) × 100/F(t = 0 h)] [2] [%] | % Test Compound after 4 h [F(t = 24 h) × 100/F(t = 0 h)] ([2]; hydrochloride) [%]
COc1cc(S(C)(=O)=O)ccc1N(C(=O)OC(C)OC(=O)[C@@H](NC(=O)[C@@H](N)CCCCN)C(C)C)c1nc2ccc(-c3ccc(NC(=O)[C@H](C)c4ccc(F)cc4)cc3)cn2n1.Cl.Cl (mixture of isomers) [Example 2.2, (1RS)-1-({[6-(4-{[(2R)-2-(4-fluorophenyl)propanoyl]amino}phenyl)[1,2,4]triazolo[1,5-α]pyridin-2-yl][2-methoxy-4-(methylsulfonyl)phenyl]carbamoyl}oxy)ethyl L-lysyl-L-valinate dihydrochloride] | 0.0 | 5 | 
COc1cc(S(C)(=O)=O)ccc1N(C(=O)OC(C)OC(=O)[C@@H](N)C(C)C)c1nc2ccc(-c3ccc(NC(=O)[C@H](C)c4ccc(F)cc4)cc3)cn2n1.Cl (mixture of isomers) [Example 3.1, (1RS)-1-({[6-(4-{[(2R)-2-(4-fluorophenyl)propanoyl]amino}phenyl)[1,2,4]triazolo[1,5-α]pyridin-2-yl][2-methoxy-4-(methylsulfonyl)phenyl]carbamoyl}oxy)ethyl L-valinate hydrochloride] | 0.0 | 0.0 | 
CN[C@H](C(=O)OCOC(=O)N(c1nc2ccc(-c3ccc(NC(=O)[C@H](C)c4ccc(F)cc4)cc3)cn2n1)c1ccc(S(C)(=O)=O)cc1OC)C(C)C.Cl [Example 1.4, ({[6-(4-{[(2R)-2-(4-fluorophenyl)propanoyl]amino}phenyl)[1,2,4]triazolo[1,5-α]pyridin-2-yl][2-methoxy-4-(methylsulfonyl)phenyl]carbamoyl}oxy)methyl N-methyl-L-valinate hydrochloride] | 0.0 | 14 | 
COc1cc(S(C)(=O)=O)ccc1N(C(=O)OC(C)OC(=O)[C@@H](NC(=O)[C@@H](N)C(C)C)C(C)C)c1nc2ccc(-c3ccc(NC(=O)[C@H](C)c4ccc(F)cc4)cc3)cn2n1.Cl (mixture of isomers) [Example 2.4, (1RS)-1-({[6-(4-{[(2R)-2-(4-fluorophenyl)propanoyl]amino}phenyl)[1,2,4]triazolo[1,5-α]pyridin-2-yl][2-methoxy-4-(methylsulfonyl)phenyl]carbamoyl}oxy)ethyl L-valyl-L-valinate hydrochloride] | 48 | 45 | 
COc1cc(S(C)(=O)=O)ccc1N(C(=O)OCOC(=O)[C@@H](N)C(C)C)c1nc2ccc(-c3ccc(NC(=O)[C@H](C)c4ccc(F)cc4)cc3)cn2n1 [Example 1.2, ({[6-(4-{[(2R)-2-(4-fluorophenyl)propanoyl]amino}phenyl)[1,2,4]triazolo[1,5-α]pyridin-2-yl][2-methoxy-4-(methylsulfonyl)phenyl]carbamoyl}oxy)methyl L-valinate hydrochloride] | 0.0 | 0.0 | 
COc1cc(S(C)(=O)=O)ccc1N(C(=O)OCOC(=O)[C@@H](NC(=O)[C@@H](N)CCCCN)C(C)C)c1nc2ccc(-c3ccc(NC(=O)[C@H](C)c4ccc(F)cc4)cc3)cn2n1.Cl.Cl [Example 2.1, ({[6-(4-{[(2R)-2-(4-fluorophenyl)propanoyl]amino}phenyl)[1,2,4]triazolo[1,5-α]pyridin-2-yl][2-methoxy-4-(methylsulfonyl)phenyl]carbamoyl}oxy)methyl L-lysyl-L-valinate dihydrochloride] | 0.0 | 0.0 | 
COc1cc(S(C)(=O)=O)ccc1N(C(=O)OC(C)OC(=O)[C@@H](N)C(C)(C)C)c1nc2ccc(-c3ccc(NC(=O)[C@H](C)c4ccc(F)cc4)cc3)cn2n1.Cl (mixture of isomers) [Example 3.2, (1RS)-1-({[6-(4-{[(2R)-2-(4-fluorophenyl)propanoyl]amino}phenyl)[1,2,4]triazolo[1,5-α]pyridin-2-yl][2-methoxy-4-(methylsulfonyl)phenyl]carbamoyl}oxy)ethyl 3-methyl-L-valinate hydrochloride] | 0.0 | 0.0 | 
COc1cc(S(C)(=O)=O)ccc1N(C(=O)OCOC(=O)C(C)(C)CN)c1nc2ccc(-c3ccc(NC(=O)[C@H](C)c4ccc(F)cc4)cc3)cn2n1.O=C(O)C(F)(F)F [Example 1.8, ({[6-(4-{[(2R)-2-(4-fluorophenyl)propanoyl]amino}phenyl)[1,2,4]triazolo[1,5-α]pyridin-2-yl][2-methoxy-4-(methylsulfonyl)phenyl]carbamoyl}oxy)methyl 3-amino-2,2-dimethylpropanoate trifluoroacetate] | 0.0 | 3 | 

The next lines start with the values.

% Test Compound after 24 h [F(t = 24 h) × 100/F(t = 0 h)] [1] [%] | % Test Compound after 4 h [F(t = 24 h) × 100/F(t = 0 h)] [2] [%] | % Test Compound after 4 h [F(t = 24 h) × 100/F(t = 0 h)] ([2]; hydrochloride) [%] | Compound
0.0 |  | 29 | COc1cc(S(C)(=O)=O)ccc1N(C(=O)OC(C)OC(=O)[C@@H](N)C(C)(C)C)c1nc2ccc(-c3ccc(NC(=O)[C@H](C)c4ccc(F)cc4)cc3)cn2n1.Cl (single isomer, unassigned) [Example 3.4, (1S or 1R)-1-({[6-(4-{[(2R)-2-(4-fluorophenyl)propanoyl]amino}phenyl)[1,2,4]triazolo[1,5-α]pyridin-2-yl][2-methoxy-4-(methylsulfonyl)phenyl]carbamoyl}oxy)ethyl-3-methyl-L-valinate hydrochloride]
48 | 44 |  | COc1cc(S(C)(=O)=O)ccc1N(C(=O)OC(OC(=O)[C@@H](N)C(C)C)C(C)C)c1nc2ccc(-c3ccc(NC(=O)[C@H](C)c4ccc(F)cc4)cc3)cn2n1 (single isomer, unassigned) [Example 5.2, (1R or S)-1-({[6-(4-{[(2R)-2-(4-fluorophenyl)propanoyl]amino}phenyl)[1,2,4]triazolo[1,5-α]pyridin-2-yl][2-methoxy-4-(methylsulfonyl)phenyl]carbamoyl}oxy)-2-methylpropyl-L-valinate hydrochloride]
48 | 80 |  | CNCCOC(=O)N(c1nc2ccc(-c3ccc(NC(=O)[C@H](C)c4ccc(F)cc4)cc3)cn2n1)c1ccc(S(C)(=O)=O)cc1OC.Cl [Example 7.1, 2-(methylamino)ethyl [6-(4-{[(2R)-2-(4-fluorophenyl)propanoyl]amino}phenyl)[1,2,4]triazolo[1,5-α]pyridin-2-yl][2-methoxy-4-(methylsulfonyl)phenyl]carbamate hydrochloride]
0.0 |  | 22 | COc1cc(S(C)(=O)=O)ccc1N(C(=O)OC(C)OC(=O)[C@@H](N)C(C)(C)C)c1nc2ccc(-c3ccc(NC(=O)[C@H](C)c4ccc(F)cc4)cc3)cn2n1.Cl (single isomer, unassigned) [Example 3.3, (1R or 1S)-1-({[6-(4-{[(2R)-2-(4-fluorophenyl)propanoyl]amino}phenyl)[1,2,4]triazolo[1,5-α]pyridin-2-yl][2-methoxy-4-(methylsulfonyl)phenyl]carbamoyl}oxy)ethyl-3-methyl-L-valinate hydrochloride]

Source: patent US9586958B2, “Prodrug derivatives of substituted triazolopyridines” (BAYER PHARMA AKTIENGESELLSCHAFT, priority 2013, dated 2017)
